Drawing on ChEMBL document CHEMBL1136667, “Inhibitors of Abeta production: solid-phase synthesis and SAR of alpha-hydroxycarbonyl derivatives” (Bioorg Med Chem Lett, 2003), this text covers IC50 for 26 compounds.

Bounds are passed on as bounds.

The test addresses Gamma-secretase. Nature of the test: Inhibition of amyloid beta protein production in transfected H4 (neuroglioma) cells expressing […] constructs. The format is functional, cell-based, Homo sapiens.

By IC50 is commonly meant the point on the concentration scale where inhibition reaches its midpoint. `CC(C)C[C@H](NC(=O)Cc1ccccc1)C(=O)N[C@@H](CC1CCCCC1)[C@@H](O)C(=O)c1ccccc1` yielded an IC50 of 900 nM.
In turn, `CCOC(=O)[C@H](O)[C@H](CC1CCCCC1)NC(=O)[C@H](CC(C)C)NC(=O)Cc1cc(F)cc(F)c1` registered an IC50 of 450 nM.
The compound `CC(C)C[C@H](NC(=O)Cc1cccc(F)c1)C(=O)N[C@@H](CC1CCCCC1)[C@@H](O)C(=O)Cc1ccccc1` returned an IC50 of 400 nM.
With `CC(C)CCC(=O)N[C@@H](CC(C)C)C(=O)N[C@@H](CC1CCCCC1)[C@@H](O)C(=O)C(C)C`, the IC50 came to 550 nM.
On to `CCOC(=O)[C@H](O)[C@H](CC1CCCCC1)NC(=O)[C@H](CC(C)C)NC(=O)Cc1ccc(F)cc1`, for which the midpoint of inhibition, the IC50, lay at 1800 nM.
In the case of `CCCC(=O)[C@H](O)[C@H](CC1CCCCC1)NC(=O)[C@H](CC(C)C)NC(=O)Cc1ccccc1`, the IC50 worked out at 600 nM.
Compound `CCOC(=O)[C@H](O)[C@H](CC1CCCCC1)NC(=O)[C@H](NC(=O)Cc1ccccc1)C(C)C` gave an IC50 of more than 25000 nM.
`CC(C)C[C@H](NC(=O)Cc1cc(F)cc(F)c1)C(=O)N[C@@H](CC1CCCCC1)[C@@H](O)C(=O)Cc1ccccc1` showed an IC50 of 160 nM.
For the compound `CCOC(=O)[C@H](O)[C@H](CC1CCCCC1)NC(=O)[C@@H](NC(=O)c1ccccc1)C(C)C`, the IC50 is more than 25000 nM.
On to `CCOC(=O)[C@H](O)[C@H](CC1CCCCC1)NC(=O)[C@@H](NC(=O)C1(c2ccccc2)CC1)C(C)C`, for which the IC50 is more than 25000 nM.
`CC(=O)[C@H](O)[C@H](CC1CCCCC1)NC(=O)[C@H](CC(C)C)NC(=O)CCC(C)C` displayed an IC50 of 620 nM.
`CCOC(=O)[C@H](O)[C@H](CC1CCCCC1)NC(=O)[C@H](CC(C)C)NC(=O)Cc1ccccc1` yielded an IC50 of 1600 nM.
`CC(=O)[C@H](O)[C@H](CC1CCCCC1)NC(=O)[C@H](CC(C)C)NC(=O)Cc1ccccc1`: half-maximal inhibition (IC50) was put at 900 nM.
The figure for `CC(C)CCC(=O)N[C@@H](CC(C)C)C(=O)N[C@@H](CC1CCCCC1)[C@@H](O)C(=O)c1ccccc1` is 4500 nM; for `CCOC(=O)[C@H](O)[C@H](CC1CCCCC1)NC(=O)[C@H](CC(C)C)NC(=O)CCC(C)C` it is 1500 nM.
For `CCCC(=O)[C@H](O)[C@H](CC1CCCCC1)NC(=O)[C@H](CC(C)C)NC(=O)CCC(C)C` the value was 580 nM.
The figure for `CCOC(=O)[C@H](O)[C@H](CC1CCCCC1)NC(=O)[C@@H](NC(=O)/C=C/c1ccccc1)C(C)C` is 5000 nM; for `CCOC(=O)[C@H](O)[C@H](CC1CCCCC1)NC(=O)[C@H](Cc1ccccc1)NC(=O)Cc1ccccc1` it is 15000 nM; for `CCOC(=O)[C@H](O)[C@H](CC1CCCCC1)NC(=O)[C@@H](NC(=O)C(=O)c1ccccc1)C(C)C` it is 3300 nM.
In turn, `CCOC(=O)[C@H](O)[C@H](CC1CCCCC1)NC(=O)[C@@H](NC(=O)Cc1ccccc1F)C(C)C` returned an IC50 of 17000 nM.
On to `CCOC(=O)[C@H](O)[C@H](CC1CCCCC1)NC(=O)[C@@H](NC(=O)Cc1ccccc1)C(C)C`, for which it took 3400 nM to reach half-maximal inhibition (IC50).
Compound `CC(=O)[C@H](O)[C@H](CC1CCCCC1)NC(=O)[C@H](CC(C)C)NC(=O)Cc1cc(F)cc(F)c1` displayed an IC50 of 180 nM.
The figure for `CC(C)CCC(=O)N[C@@H](CC(C)C)C(=O)N[C@@H](CC1CCCCC1)[C@@H](O)C(=O)Cc1ccccc1` is 300 nM; for `CC(C)C[C@H](NC(=O)Cc1ccccc1)C(=O)N[C@@H](CC1CCCCC1)[C@@H](O)C(=O)O` it is 15000 nM.
With `CC(C)C[C@H](NC(=O)Cc1ccccc1)C(=O)N[C@@H](CC1CCCCC1)[C@@H](O)C(=O)Cc1ccccc1`, the IC50 worked out at 400 nM.
For `CCOC(=O)[C@H](O)[C@H](CC1CCCCC1)NC(=O)[C@H](CC(C)C)NC(=O)Cc1cccc(F)c1` the value was 920 nM.
